# Assay results as given in ChEMBL document CHEMBL3297734, “Cationic lipid-conjugated dexamethasone as a selective antitumor agent” (Eur J Med Chem, 2014).
# Activity calls are given as the source filed them. The rule behind the calls is not given here.
# What was measured:
# CHO [1] = assay: Cytotoxicity against CHO cells after 72 hrs by MTT assay; assay type: cell-based; conditions: Cricetulus griseus
# HEK-293T [2] = assay: Cytotoxicity against HEK293T cells after 72 hrs by MTT assay; assay type: cell-based; conditions: Homo sapiens
# MCF7 [3] = assay: Anticancer against human MCF7 cells after 72 hrs by MTT assay; assay type: functional, cell-based; conditions: MCF7, 72 h
# [4] = Anticancer against mouse B16F10 cells after 72 hrs by MTT assay; assay type: functional, cell-based; conditions: B16-F10, 72 h
# A549 = assay: Anticancer against human A549 cells after 72 hrs by MTT assay; assay type: functional, cell-based; conditions: A549, 72 h
# [5] = Cytotoxicity against mouse fibroblasts after 72 hrs by MTT assay; assay type: cell-based; conditions: Fibroblast
# HEK-293T [6] = assay: Induction of apoptosis in HEK293T cells assessed as early apoptotic cells at 10 uM after 48 hrs using FITC-annexin V-FITC/propidium iodide by flow cytometry (reference value: 0.3%); assay type: cell-based; conditions: human
# MCF7 [7] = assay: Induction of apoptosis in human MCF7 cells assessed as late apoptotic cells at 10 uM after 48 hrs using FITC-annexin V-FITC/propidium iodide by flow cytometry (reference value: 3.5%); assay type: functional
# B16-F10 [8] = assay: Induction of apoptosis in mouse B16F10 cells assessed as caspase 3 activation at 10 uM after 48 hrs by Western blot analysis; assay type: functional, cell-based
# B16-F10 [9] = assay: Induction of apoptosis in mouse B16F10 cells assessed as caspase 9 activation at 10 uM after 48 hrs by Western blot analysis; assay type: functional, cell-based
# [10] = Induction of apoptosis in CHO cells assessed as viable cells at 10 uM after 48 hrs using FITC-annexin V-FITC/propidium iodide by flow cytometry (reference value: 93.3%); assay type: cell-based, Cricetulus griseus; conditions: chinese hamster, read-out: Activity
# MCF7 [11] = assay: Induction of apoptosis in human MCF7 cells assessed as viable cells at 10 uM after 48 hrs using FITC-annexin V-FITC/propidium iodide by flow cytometry (reference value: 86.4%); assay type: functional; conditions: MCF7, 48 h, read-out: Activity
# B16-F10 [12] = assay: Antitumor activity against mouse B16F10 cells xenografted in C57BL/6 mouse assessed as apoptotic regions at 20 mg/kg, ip measured after 24 days of tumor inoculation by TUNEL assay; assay type: functional, organism-based; design: dose 20 mg/kg
# B16-F10 [13] = assay: Induction of apoptosis in mouse B16F10 cells assessed as down-regulation of XIAP at 10 uM after 48 hrs by Western blot analysis; assay type: functional, cell-based
# B16-F10 [14] = assay: Cytotoxicity against mouse B16F10 cells assessed as cell viability after 48 hrs by flow cytometry in presence of RU-486 GR antagonist; assay type: functional, cell-based
# B16-F10 [15] = assay: Induction of apoptosis in mouse B16F10 cells assessed as increase in ratio of BAX/Bcl2 expression at 10 uM after 48 hrs by Western blot analysis relative to untreated control; assay type: functional, cell-based
# MCF7 [16] = assay: Induction of apoptosis in human MCF7 cells assessed as necrotic cells at 10 uM after 48 hrs using FITC-annexin V-FITC/propidium iodide by flow cytometry (reference value: 7.1%); assay type: functional
# CHO [17] = assay: Induction of apoptosis in CHO cells assessed as early apoptotic cells at 10 uM after 48 hrs using FITC-annexin V-FITC/propidium iodide by flow cytometry (reference value: 0.1%); assay type: cell-based, Cricetulus griseus; conditions: chinese hamster
# HEK-293T [18] = assay: Induction of apoptosis in HEK293T cells assessed as necrotic cells at 10 uM after 48 hrs using FITC-annexin V-FITC/propidium iodide by flow cytometry (reference value: 0.7%); assay type: cell-based; conditions: human
# B16-F10 [19] = assay: Antitumor activity against mouse B16F10 cells xenografted in C57BL/6 mouse assessed as down-regulation of p-Mdm2 in tumor at 20 mg/kg, ip measured after 24 days of tumor inoculation by Western blot analysis; assay type: functional, organism-based; design: dose 20 mg/kg
# B16-F10 [20] = assay: Antitumor activity against mouse B16F10 cells xenografted in C57BL/6 mouse assessed as inhibition tumor growth at 20 mg/kg, ip measured after 24 days of tumor inoculation; assay type: functional, organism-based; design: dose 20 mg/kg
# B16-F10 [21] = assay: Induction of apoptosis in mouse B16F10 cells assessed as up-regulation of caspase 7 at 10 uM after 48 hrs by Western blot analysis; assay type: functional, cell-based
# CHO [22] = assay: Induction of apoptosis in CHO cells assessed as necrotic cells at 10 uM after 48 hrs using FITC-annexin V-FITC/propidium iodide by flow cytometry (Rvb =6.6%); assay type: cell-based, Cricetulus griseus; conditions: chinese hamster
# B16-F10 [23] = assay: Antitumor activity against mouse B16F10 cells xenografted in C57BL/6 mouse assessed as apoptotic regions at 20 mg/kg, ip measured after 24 days of tumor inoculation by VE-cadherin; assay type: functional, organism-based; design: dose 20 mg/kg
# [24] = Induction of apoptosis in HEK293T cells assessed as viable cells at 10 uM after 48 hrs using FITC-annexin V-FITC/propidium iodide by flow cytometry (reference value: 98.6%); assay type: cell-based, HEK-293T; conditions: human, read-out: Activity
# B16-F10 [25] = assay: Induction of apoptosis in mouse B16F10 cells assessed as Akt destruction at 10 uM after 48 hrs by Western blot analysis; assay type: functional, cell-based
# B16-F10 [26] = assay: Induction of apoptosis in mouse B16F10 cells assessed as late apoptotic cells at 10 uM after 48 hrs using FITC-annexin V-FITC/propidium iodide by flow cytometry (reference value: 2.5%); assay type: functional
# MCF7 [27] = assay: Cytotoxicity against human MCF7 cells transfected with GR-siRNA assessed as cell viability after 48 hrs by flow cytometry; assay type: functional, cell-based
# B16-F10 [28] = assay: Induction of apoptosis in mouse B16F10 cells assessed as up-regulation of Smac/Diablo at 10 uM after 48 hrs by Western blot analysis; assay type: functional, cell-based
# B16-F10 [29] = assay: Induction of apoptosis in mouse B16F10 cells assessed as necrotic cells at 10 uM after 48 hrs using FITC-annexin V-FITC/propidium iodide by flow cytometry (reference value: 1.7%); assay type: functional
# B16-F10 [30] = assay: Induction of apoptosis in mouse B16F10 cells assessed as p53 up-regulation at 10 uM after 48 hrs by flow cytometry; assay type: functional, cell-based
# B16-F10 [31] = assay: Cytotoxicity against mouse B16F10 cells transfected with GR-siRNA assessed as cell viability after 48 hrs by flow cytometry; assay type: functional, cell-based
# B16-F10 [32] = assay: Antitumor activity against mouse B16F10 cells xenografted in C57BL/6 mouse assessed as up-regulation of P53 in tumor at 20 mg/kg, ip measured after 24 days of tumor inoculation by Western blot analysis; assay type: functional, organism-based; design: dose 20 mg/kg
# B16-F10 [33] = assay: Antitumor activity against mouse B16F10 cells xenografted in C57BL/6 mouse assessed as reduction in angiogenesis in tumor measured as VEGRF2 expression at 20 mg/kg, ip measured after 24 days of tumor inoculation by microscopy relative to untreated control; assay type: functional, organism-based; design: dose 20 mg/kg
# MCF7 [34] = assay: Induction of apoptosis in human MCF7 cells assessed as early apoptotic cells at 10 uM after 48 hrs using FITC-annexin V-FITC/propidium iodide by flow cytometry (reference value: 3%); assay type: functional
# CHO [35] = assay: Induction of apoptosis in CHO cells assessed as late apoptotic cells at 10 uM after 48 hrs using FITC-annexin V-FITC/propidium iodide by flow cytometry (reference value: 0%); assay type: cell-based, Cricetulus griseus; conditions: chinese hamster
# B16-F10 [36] = assay: Induction of apoptosis in mouse B16F10 cells assessed as down-regulation of JAK3/STAT3 at 10 uM after 48 hrs by Western blot analysis; assay type: functional, cell-based
# HEK-293T [37] = assay: Induction of apoptosis in HEK293T cells assessed as late apoptotic cells at 10 uM after 48 hrs using FITC-annexin V-FITC/propidium iodide by flow cytometry (reference value: 0.4%); assay type: cell-based; conditions: human
# B16-F10 [38] = assay: Induction of apoptosis in mouse B16F10 cells assessed as early apoptotic cells at 10 uM after 48 hrs using FITC-annexin V-FITC/propidium iodide by flow cytometry (reference value: 0.7%); assay type: functional
# B16-F10 [39] = assay: Induction of apoptosis in mouse B16F10 cells assessed as viable cells at 10 uM after 48 hrs using FITC-annexin V-FITC/propidium iodide by flow cytometry (reference value: 95.1%); assay type: functional; conditions: B16-F10, 48 h, read-out: Activity
IC50 (MCF7 [3]) [µM],IC50 (A549) [µM],SMILES,IC50 (CHO [1]) [µM],IC50 (HEK-293T [2]) [µM],IC50 [4] [µM],IC50 [5] [µM],Activity (HEK-293T [6]) [%],Activity (MCF7 [7]) [%],"viability at 48 h, 10 µM [10] [%]",viability at 10 µM (MCF7 [11]) [%],Activity (B16-F10 [12]),Activity (B16-F10 [15]),Activity (MCF7 [16]) [%],Activity (CHO [17]) [%],Activity (HEK-293T [18]) [%],inhibition (B16-F10 [20]),Activity (CHO [22]) [%],Activity (B16-F10 [23]),"viability at 48 h, 10 µM [24] [%]",Activity (B16-F10 [26]) [%],other results
13.5,14,CCCCCCCCCCCC[N+](C)(CCCCCCCCCCCC)CCNC(=O)[C@@]1(O)[C@H](C)C[C@H]2[C@@H]3CCC4=CC(=O)C=C[C@]4(C)[C@@]3(F)[C@@H](O)C[C@@]21C,> 20,> 15,> 15,> 15,,,,,,,,,,,,,,,
6.5,7.2,CCCCCCCC[N+](C)(CCCCCCCC)CCNC(=O)[C@@]1(O)[C@H](C)C[C@H]2[C@@H]3CCC4=CC(=O)C=C[C@]4(C)[C@@]3(F)[C@@H](O)C[C@@]21C.[Cl-],> 15,> 15,6,> 15,0.1,7.8,94.1,61.5,Active,Active,13.1,0,0.5,Active,5.9,inactive,99.3,12.5,Activity (B16-F10 [8]): Active; Activity (B16-F10 [9]): Active; Activity (B16-F10 [13]): Active; Activity (B16-F10 [14]): inactive; Activity (B16-F10 [19]): Active; Activity (B16-F10 [21]): Active; Activity (B16-F10 [25]): Active; Activity (MCF7 [27]): inactive; Activity (B16-F10 [28]): Active; Activity (B16-F10 [29]): 2.5%; Activity (B16-F10 [30]): Active; Activity (B16-F10 [31]): inactive; Activity (B16-F10 [32]): Active; inhibition (B16-F10 [33]): Active; Activity (MCF7 [34]): 18.6%; Activity (CHO [35]): 0%; Activity (B16-F10 [36]): Active; Activity (HEK-293T [37]): 0.1%; Activity (B16-F10 [38]): 27%; viability at 10 µM (B16-F10 [39]): 58%
> 15,14.8,CCCCCCCCCCCCCCCC[N+](C)(CCCCCCCCCCCCCCCC)CCNC(=O)[C@@]1(O)[C@H](C)C[C@H]2[C@@H]3CCC4=CC(=O)C=C[C@]4(C)[C@@]3(F)[C@@H](O)C[C@@]21C,> 15,> 20,> 15,> 15,,,,,,,,,,,,,,,

# Further lines, the compound ahead of its results:
SMILES,IC50 (MCF7 [3]) [µM],IC50 (A549) [µM],IC50 (CHO [1]) [µM],IC50 (HEK-293T [2]) [µM],IC50 [4] [µM],IC50 [5] [µM],Activity (HEK-293T [6]) [%],Activity (MCF7 [7]) [%],"viability at 48 h, 10 µM [10] [%]",viability at 10 µM (MCF7 [11]) [%],Activity (B16-F10 [12]),Activity (B16-F10 [15]),Activity (MCF7 [16]) [%],Activity (CHO [17]) [%],Activity (HEK-293T [18]) [%],inhibition (B16-F10 [20]),Activity (CHO [22]) [%],Activity (B16-F10 [23]),"viability at 48 h, 10 µM [24] [%]",Activity (B16-F10 [26]) [%],other results
CCCC[N+](C)(CCCC)CCNC(=O)[C@@]1(O)[C@H](C)C[C@H]2[C@@H]3CCC4=CC(=O)C=C[C@]4(C)[C@@]3(F)[C@@H](O)C[C@@]21C,> 15,> 15,> 20,> 15,> 20,> 20,,,,,,,,,,,,,,,
CC[N+](C)(CC)CCNC(=O)[C@@]1(O)[C@H](C)C[C@H]2[C@@H]3CCC4=CC(=O)C=C[C@]4(C)[C@@]3(F)[C@@H](O)C[C@@]21C,> 15,> 15,> 15,> 20,> 20,> 20,,,,,,,,,,,,,,,
C[C@@H]1C[C@H]2[C@@H]3CCC4=CC(=O)C=C[C@]4(C)[C@@]3(F)[C@@H](O)C[C@]2(C)[C@@]1(O)C(=O)CO [DEXAMETHASONE],> 15,> 15,> 20,> 20,> 20,> 15,0.1,5.9,95.8,82.8,Active,Active,9.5,0,0.4,Active,4.2,Active,94.4,3.7,Activity (B16-F10 [29]): 1.3%; Activity (MCF7 [34]): 2.4%; Activity (CHO [35]): 0%; Activity (HEK-293T [37]): 0.1%; Activity (B16-F10 [38]): 0.8%; viability at 10 µM (B16-F10 [39]): 94.1%
